# How the values were obtained:
# [1] = tested on: iNOS; test: Western blot of liver samples, iNOS; parameters: species or system rat; conditions: 2 h reperfusion
# Method: (§1) Western blots. Protein was extracted from liver samples with PBSTDS buffer (50 mM Tris, 150 mM NaCl, 0.1% SDS, 1% sodium deoxycholate, and 1% triton X-100, pH 7.2). Proteins (30 μg/sample) in SDS-loading buffer (50 mM Tris, pH 7.6, 10% glycerol, 1% SDS) were subjected to 12% SDS-polyacrylamide gel electrophoresis and transferred to nitrocellulose membrane (Bio-Rad, Hercules, Calif.). The gel was stained with coomassie blue to document equal protein loading. The membrane was blocked with 3% dry milk and 0.1% Tween 20 (USB, Cleveland, Ohio) in PBS and incubated with rabbit anti-rat HO-1 or iNOS polyclonal Abs (SangStat, Fremont, Calif.). Relative protein quantities were determined using a densitometer (Kodak Digital Science 1D Analysis Software, Rochester, N.Y.).
# [2] = tested on: HO-1; test: Western blot of liver samples, HO-1; parameters: species or system rat; conditions: 2 h after perfusion
# Method: as §1
# [3] = tested on: HO-1; test: HO-1 enzymatic activity in liver homogenates; format: biochemical, rat; conditions: liver after perfusion; ZnPP = 1.5 mg/kg i.p. 24 h before harvest then CO perfusion; CO = CO only
# Method: HO-1 Enzymatic Activity. Livers were homogenized on ice in a Tris-HCl lysis buffer (pH 7.4) containing 0.5% Triton X-100 and protease inhibitors. Samples were frozen in small aliquots until use. Homogenates (100 μl) were mixed with 0.8 mM NADPH, 0.8 mM glucose-6-phosphate 1.0 unit G-60P dehydrogenase, 1 mM MgCl2 and […] purified rat liver biliverdin reductase at 4° C. The reaction was initiated by the addition of hemin (final concentration 0.25 mM). The reaction mixture was incubated at 37° C. in the dark for 15 min. At the end of incubation period, any insoluble material was removed by centrifugation and supernatants were analyzed for bilirubin concentration. An extinction coefficient of 40 mM^−1 cm^−1 at A 460-530 was used to calculate the amount of bilirubin formed. Controls included naive samples in the absence of the NADPH generating system and all the ingredients of the reaction mixture in the absence of graft homogenates. Biliverdin reductase was purified from rat liver, as described in Browne and Ultrich, Mol. Pharmacol. 32:497-504 (1987).
# [4] = tested on: LEW.1W aortic allografts in LEW.1A rats; test: Chronic aorta allograft rejection model, morphometry of intima thickness; format: in vivo, rat; conditions: day 30
# Method: Animals and aorta transplantation. Transplantations were performed using 250 g inbred male Lewis 1W rats (LEW. 1W, haplotype RT1^u) as donors and LEW.1A rats (haplotype RT1^a) as recipients (CERJ, Le Genest St. Isle, France). These animals are completely mismatched for the entire MHC region. Animal procedures followed European guidelines for animal experimentation. The descending thoracic aortas were harvested, perfused with saline and anastomosed to the recipient's abdominal aorta below the renal arteries and above the aortic bifurcation. Anastomosis was performed in a termino-lateral fashion and the recipient abdominal aorta was ligated between the two-graft anastomosis. […]
# MC (Sigma, St. Louis, Mo.) was diluted in olive oil and administered orally on a daily basis (from day 0 to 30) at 500 mg/kg. […] COHb levels were evaluated in heparinized venous blood using the VOXimeter sensor (A-VOX Systems, San Antonio, Tex.) and expressed as the percentage of total hemoglobin. Bicarbonates, soluble CO2, total CO2 and pH were measured using standard clinical biochemistry techniques (Laboratory of Biochemistry, University Hospital of Nantes).
# Recombinant adenovirus and gene transfer into the aorta. […] Quantification of infectious adenoviral particles was determined by counting the number of spots (corresponding to individual viral replication events) on infected 293 cells. […]
# [5] = tested on: Lewis rats; test: Experimental autoimmune encephalomyelitis (EAE) model of multiple sclerosis; format: in vivo, rat; conditions: daily oral administration from day 8 post-inoculation; scale 0 to 3
# Method: Multiple sclerosis is characterized by an autoimmune and inflammatory response directed against myelin sheath and oligodendrocytes, resulting in demyelination in the central nervous system. A well-established animal model of multiple sclerosis, experimental autoimmune encephalomyelitis (EAE), was used to examine the effect of the subject alkyl halides on this autoimmune and inflammatory condition of the central nervous system. Lewis rats were given intradermal footpad injections of 50 μg guinea pig myelin basic protein (MBP) and complete Freund's adjuvant (CFA) to induce experimental allergic encephalomyelitis (EAE). Daily oral administration of vehicle, methylene chloride or iodoform was started on day 8 post-inoculation and continued to the end of the study. Animals were monitored and scored on a 0 (normal) to 3 (complete hindlimb paralysis) scale. Daily mean±SD clinical scores are shown.
SMILES,iNOS expression (Western blot) [1],HO-1 protein accentuated (Western blot) vs air alone [2],HO-1 enzyme activity [3],"intimal thickening (mean±SEM) ([4]; allogeneic aortic grafts, MC 500 mg/kg orally daily, adenoviruses 10^10 IP into donor aorta) [%]",infiltrating cells in adventitia (HES) [4],clinical score / clinical signs [5]
"[C-]#[O+] [CO, carbon monoxide]",no detectable bands,ca. 3 fold,2.25±0.18 nmol of bilirubin/mg/protein/min,,,
ClCCl [methylene chloride],,,,8.3±4.5,moderate reduction,show improvement over the controls

# Reference: patent US20040143025A1, “Carbon monoxide generating compunds for treatment of vascular, inflammatory and immune disorders” (priority 2002, published 2004)
